Results as given in patent publication US4338330A, “Benzimidazole derivatives, their use, and compositions containing these derivatives” (Continental Pharma, priority 1979, dated 1982).
Entries after “also recorded” stand apart in the source; their conditions may differ. Counter-ions that a name gives are not always drawn. Like-named read-outs stand apart in the source and are kept apart here.

Key:
β1 cardiac receptors [1] = molecular target: T1, β1 cardiac receptors (Cavia porcellus, UniProt H0W3H1); experiment: β-lytic activity: inhibition of chronotropic response to noradrenaline of auricles (pA2); parameters: species or system guinea pig
T1 construct: chronotropic response to noradrenaline of guinea pig auricles; from tissue; host or cells: guinea pig auricles (chronotropic response); electrically stimulated guinea pig left auricles (inotropic response)
Procedure: (§1) The effect on β1 cardiac receptors is measured by inhibition of the chronotropic response to noradrenaline of guinea pig auricles and of the inotrope response to isoproterenol of guinea pig left auricles which were electrically stimulated. The cardioselectivity is appreciated by measuring the antagonist effect at the level of β2 receptors of the guinea pig trachea. To this end, a tracheal chain is contracted by a maximum concentration of histamine and inhibition of relaxation by isoproterenol is measured. The values calculated for cardioselectivity are obtained by considering the difference between pA2 values of the chronotrope response and the relaxation on the one hand (1st column) and of the inotrope response and relaxation on the other hand (2nd column).

β1 cardiac receptors [2] = molecular target: T1, β1 cardiac receptors; experiment: β-lytic activity: inhibition of inotrope response to isoproterenol of electrically stimulated left auricles (pA2); parameters: species or system guinea pig
Procedure: as §1

[3] = system: β1 cardiac receptors versus β2 tracheal receptors; experiment: Cardioselectivity (auricles versus trachea); parameters: species or system guinea pig; details: for times more active on β cardiac receptors than on β2 receptors: from difference of pA2 on auricles and trachea
Procedure: as §1, with “column). For these various experiences, pA2 is calculated according to the Van Rossum method (Arch. Inern. Pharmacodyn., 143, 299-330, 1963).” for “column).”

[4] = LD50 in mice, oral (Lichtfield and Wilcoxon method); type: in vivo
Procedure: LD50 were determined according to the Lichtfield and Wilcoxon method (J. Pharmacol. Exp. Ther. 96, 99, 1949) and expressed in mg/kg. The products were administered to mice orally.

[5] = Antihypertensive activity, oral, unanesthetized spontaneously hypertensive rats; type: in vivo; details: 60 mg/kg oral; for Antihypertensive activity (score): spontaneously hypertensive rats; for Antihypertensive activity (index): systolic pressure difference (cmHg) every 30 min multiplied by time coefficient 1 to 6
Procedure: […] Only rats having a systolic pressure of 180 to 220 mm Hg are used. Two rats are used by product. The treatments are administered without the knowledge of the person making the measure.
The antihypertensive effects were recorded according to a score followed by an index. The scoring system is as follows.
The index is calculated by multiplying the systolic pressure difference (cmHg) measured every 30 minutes after the treatment, by a coefficient of 1 to 6 corresponding to times of 30 to 180 minutes.

[6] = system: isolated guinea pig auricles; experiment: Chronotrope effect of the substance on isolated auricles; details: 10^-6 M, 20 minutes, Tyrode, 29° C.
Procedure: The β-lytic effect was searched on the chronotropic response to noradrenaline of isolated guinea pig auricles. Auricles were incubated for 20 minutes in a Tyrode solution at 29° C. in the presence of the substance to be tested at the concentration of 10^-6 M. A positive (+) or negative (-) chronotrope effect of the substance was noted using the following scores: […]

[7] = system: chronotropic response to noradrenaline of isolated guinea pig auricles; experiment: β-lytic effect on the chronotropic response to noradrenaline of isolated auricles
Procedure: The β-lytic effect was searched on the chronotropic response to noradrenaline of isolated guinea pig auricles. Auricles were incubated for 20 minutes in a Tyrode solution at 29° C. in the presence of the substance to be tested at the concentration of 10^-6 M. A positive (+) or negative (-) chronotrope effect of the substance was noted using the following scores:
Then, the chronotrope effect of cumulative increasing concentrations of noradrenaline was recorded. The pD2 (-log CE50) value was calculated. A score of β-lytic activity of the substance was given as follows:
If the score at concentration of 10^-6 M was 3 or 4, the effect of the substance was examined at concentration of 10^-7 M and a score was recorded according to the same procedure.

[8] = system: guinea pig ileum contractions induced by histamine; experiment: Antispasmodic activity against ileum contractions induced by histamine
Procedure: (§2) The antispasmodic activity of the studied substances was examined against guinea pig ileum contractions induced by histamine and acetylcholine.
(§3) These experiences allow to make it obvious an antihistaminic, anticholinergic or musculotrope activity. The response to the contracting agent (sub-maximum concentration) is obtained every 5 minutes before and after injection of increasing concentrations of tested products (10^-7 M to 10^-4 M). The inhibition percentage under the influence of tested products is calculated and the theoretical concentration giving 50% of inhibition is graphically determined for each experience. These values are expressed in -log CI50 (M).

[9] = system: guinea pig ileum contractions induced by acetylcholine; experiment: Antispasmodic activity against ileum contractions induced by acetylcholine
Procedure: as §2, §3

[10] = Peripheral vasodilator activity, anesthetized dog, femoral arterial circulation; type: in vivo; details: 30 μg/kg injected directly
Procedure: The peripheral vasodilator activity was measured on anesthetized dog at the level of femoral arterial circulation. To this end, the femoral artery the collaterals of which have been ligated is perfused at constant rate with blood taken from aorta. The perfusion pressure measured at the level of the femoral artery thus varies as a function of the resistance of the perfused area. The tested products and the corresponding solvents are directly injected at the dose of 30 μg/kg. The cardiac output being maintained constant, a vasodilation is thus measured by a decrease of the perfusion pressure. The latter is scored in comparison with the action of papaverine, considered as a reference and injected one time by group of 4 products. When interesting, the products are tested with other doses under the same conditions.
The vasodilator activity is appreciated as follows: […]

[11] = molecular target: T2, β2 receptors of the guinea pig trachea (Cavia porcellus, UniProt Q8K4Z4); experiment: Antagonist effect on relaxation of trachea by isoproterenol (pA2); details: histamine-contracted tracheal chain, read-out: β-lytic activity, pA2 trachea relaxation (converted)
T2 construct: β2 receptors of the guinea pig trachea; from tissue; host or cells: guinea pig tracheal chain contracted by histamine
Procedure: as §1

[12] = mouse, in vivo, po, read-out: LD50

T1 sequence (H0W3H1 1-470): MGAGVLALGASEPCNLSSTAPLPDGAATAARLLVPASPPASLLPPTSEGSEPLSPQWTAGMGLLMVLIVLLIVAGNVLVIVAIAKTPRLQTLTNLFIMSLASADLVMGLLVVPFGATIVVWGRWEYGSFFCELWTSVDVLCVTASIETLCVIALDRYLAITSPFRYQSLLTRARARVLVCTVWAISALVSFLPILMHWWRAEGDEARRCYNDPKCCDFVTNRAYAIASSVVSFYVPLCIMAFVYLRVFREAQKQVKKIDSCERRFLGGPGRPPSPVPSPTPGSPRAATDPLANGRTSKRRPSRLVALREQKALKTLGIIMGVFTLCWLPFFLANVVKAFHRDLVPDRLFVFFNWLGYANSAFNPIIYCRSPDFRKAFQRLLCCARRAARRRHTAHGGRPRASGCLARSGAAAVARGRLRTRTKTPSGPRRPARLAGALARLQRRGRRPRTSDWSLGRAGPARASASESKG
T2 sequence (Q8K4Z4 whole entry): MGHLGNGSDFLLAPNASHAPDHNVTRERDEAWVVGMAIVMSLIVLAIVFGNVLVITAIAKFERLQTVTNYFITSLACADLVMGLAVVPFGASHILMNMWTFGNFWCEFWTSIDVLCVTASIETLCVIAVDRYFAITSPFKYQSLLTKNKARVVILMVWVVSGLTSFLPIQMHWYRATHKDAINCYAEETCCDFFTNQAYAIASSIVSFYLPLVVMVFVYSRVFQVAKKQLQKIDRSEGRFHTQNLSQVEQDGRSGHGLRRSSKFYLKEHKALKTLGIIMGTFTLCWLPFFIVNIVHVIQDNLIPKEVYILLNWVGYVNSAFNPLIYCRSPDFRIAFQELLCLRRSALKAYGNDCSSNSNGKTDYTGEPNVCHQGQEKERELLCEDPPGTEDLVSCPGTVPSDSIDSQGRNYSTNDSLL

Structure (SMILES)	Kb (β1 cardiac receptors [1])	Kb (β1 cardiac receptors [2])	times more active on β cardiac receptors than on β2 receptors [3]	LD50 [4, 12]	Antihypertensive activity (score) [5]	Antihypertensive activity (index) [5]	Chronotrope effect (score) [6]	β-lytic effect (score) ([7]; 10^-6 M)	Antispasmodic activity, Hist. (-log CI50 (M)) [8]	Antispasmodic activity, Ac. Chol. (-log CI50 (M)) [9]	Peripheral vasodilator activity [10]	β-lytic effect (score) ([7]; 10^-7 M)	Activity on β cardiac receptors (in words) (β1 cardiac receptors [1])	Kb (β1 cardiac receptors [1]; noradrenaline, read-out: β-lytic activity, pA2 auricles chronotrope response (converted))	Kb (β1 cardiac receptors [2]; isoproterenol, electrically stimulated left auricles, read-out: β-lytic activity, pA2 auricles inotrope response (converted))	Kb [11]	Cardioselectivity ([3]; Table III, from pA2 auricles and trachea)	Cardioselectivity (in words) ([3]; guinea pig auricles vs trachea)	LD50 [4]
CC(C)NCC(O)COc1ccc(CC(N)=O)cc1 (centres unmarked) [Atenolol, reference compound]	44.7 nM	129 nM	50 times	–	–	–	–	–	–	–	–	–	–	–	–	–	–	–	–
OC(CNCCOc1ccccc1)COc1ccc(-c2nc3ccccc3[nH]2)cc1 (centres unmarked) [Compound 3, 2-{4-[3-(2-phenoxyethylamino)-2-hydroxypropoxy]phenyl}benzimidazole]	–	–	–	> 3000 mg/kg	+++ (reduction of 30 to 50 mm Hg)	50	0 (if the frequency modification was comprised between +6 and -6)	2 (if 6.40≥pD2 ≥6.01)	6.52 -log CI50 (M)	6.43 -log CI50 (M)	active	–	–	–	–	–	–	–	–
COc1ccc(CCNCC(O)COc2ccc(-c3nc4ccccc4[nH]3)cc2)cc1OC (centres unmarked) [Compound 5, 2-[[4-{3-[2-(3,4-dimethoxyphenyl)ethylamino]-2-hydroxypropoxy}phenyl]]benzimidazole]	–	–	more than 5600 times	> 3000 mg/kg	+++ (reduction of 30 to 50 mm Hg)	34	0 (if the frequency modification was comprised between +6 and -6)	3 (if 6.00≥pD2 ≥5.51)	5.80 -log CI50 (M)	5.69 -log CI50 (M)	–	2 (if 6.40≥pD2 ≥6.01)	active β-agents on β cardiac receptors	21.4 nM	39.8 nM	> 100000 nM	> 1.91	important cardioselectivity; also recorded: much higher than that of metopropol and atenolol	–
OC(CNCCCCc1ccccc1)COc1ccc(-c2nc3ccccc3[nH]2)cc1 (centres unmarked) [Compound 6]	–	–	–	> 3000 mg/kg	0 (reduction <10 mm Hg)	–	-1	0 (if pD2 ≥6.81)	6.89 -log CI50 (M)	7.12 -log CI50 (M)	active	–	–	–	–	–	–	–	–
CC(CCc1ccccc1)NCC(O)COc1ccc(-c2nc3ccccc3[nH]2)cc1 (centres unmarked) [Compound 7]	–	–	–	> 3000 mg/kg	+ (reduction of 10 to 20 mm Hg)	18	0 (if the frequency modification was comprised between +6 and -6)	0 (if pD2 ≥6.81)	6.25 -log CI50 (M)	6.23 -log CI50 (M)	active	–	–	–	–	–	–	–	–
CC(C)NCC(O)COc1ccc(-c2nc3ccccc3[nH]2)cc1 (centres unmarked) [Compound 12, 2-[4-(3-isopropylamino-2-hydroxypropoxy)phenyl]benzimidazole]	–	–	–	–	++++ (reduction>50 mm Hg)	160	0 (if the frequency modification was comprised between +6 and -6)	4 (if pD2 ≤5.50)	4.60 -log CI50 (M)	4.75 -log CI50 (M)	–	2 (if 6.40≥pD2 ≥6.01)	–	–	–	–	–	–	1950 mg/kg
CC(CCc1ccc2c(c1)OCO2)NCC(O)COc1ccc(-c2nc3ccccc3[nH]2)cc1 (centres unmarked) [Compound 13]	–	–	–	> 1000 mg/kg	0 (reduction <10 mm Hg)	–	0 (if the frequency modification was comprised between +6 and -6)	2 (if 6.40≥pD2 ≥6.01)	6.46 -log CI50 (M)	6.15 -log CI50 (M)	–	–	–	–	–	–	–	–	–
Cc1ccc2[nH]c(-c3ccc(OCC(O)CNC(C)C)cc3)nc2c1 (centres unmarked) [Compound 14, 2-[4-(3-isopropylamino-2-hydroxypropoxy)phenyl]-5(6)-methylbenzimidazole (hydrochloride)]	–	–	–	1450 mg/kg	++++ (reduction>50 mm Hg)	83	1	4 (if pD2 ≤5.50)	4.85 -log CI50 (M)	5.10 -log CI50 (M)	–	2 (if 6.40≥pD2 ≥6.01)	–	–	–	–	–	–	–
Cc1cc2nc(-c3ccc(OCC(O)CNC(C)C)cc3)[nH]c2cc1C (centres unmarked) [Compound 15]	–	–	–	1450 mg/kg	++++ (reduction>50 mm Hg)	110	0 (if the frequency modification was comprised between +6 and -6)	3 (if 6.00≥pD2 ≥5.51)	5.45 -log CI50 (M)	5.38 -log CI50 (M)	–	1 (if 6.80≥pD2 ≥6.41)	–	–	–	–	–	–	–
CC(C)NCC(O)COc1ccc(-c2nc3cc(Cl)ccc3[nH]2)cc1 (centres unmarked) [Compound 16]	–	–	–	1100 mg/kg	++++ (reduction>50 mm Hg)	90	0 (if the frequency modification was comprised between +6 and -6)	3 (if 6.00≥pD2 ≥5.51)	5.58 -log CI50 (M)	5.25 -log CI50 (M)	–	1 (if 6.80≥pD2 ≥6.41)	–	–	–	–	–	–	–
OC(CNCCCCSc1ccccc1)COc1ccc(-c2nc3ccccc3[nH]2)cc1 (centres unmarked) [Compound 23]	–	–	–	–	0 (reduction <10 mm Hg)	–	0 (if the frequency modification was comprised between +6 and -6)	0 (if pD2 ≥6.81)	6,05 -log CI50 (M)	5,74 -log CI50 (M)	active	–	–	–	–	–	–	–	–
COCCc1ccc(OCC(O)CNC(C)C)cc1 (centres unmarked) [Metroprolol, reference compound]	–	–	65 times	–	–	–	–	–	–	–	–	–	–	–	–	–	–	–	–
